For one substance, Kd results are on record in publication PMC10615883 (Angewandte Chemie (International ed. in English), 2023).

The Kd is the equilibrium constant for the complex coming apart. The low end stands for tighter binding, the high end for weaker binding.

This experiment has as its target Aβ40 aggregates (amyloid beta) (Homo sapiens, UniProt P05067). Kind of experiment: fluorescence titration with Aβ aggregates. It is filed as binding.

Chain of Aβ40 aggregates (amyloid beta) (P05067 672-711 limits assumed): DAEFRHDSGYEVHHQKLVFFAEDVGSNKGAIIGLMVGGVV

Consider CRANAD-147, for which the Kd is 2.89 ± 0.43 µM.
